In patent publication US9018391B2, “Inhibitors of beta-secretase” (Boehringer Ingelheim International GmbH, priority 2012, dated 2015):

Columns and labels:
[1] = tested on: brain amyloid peptides Aβ1-x; assay: Rat Brain Aβ Lowering Assay (Assay 5); format: in vivo; details: 3 hrs after dosing
Experimental: Rat Brain Aβ Lowering Assay (Assay 5)
The animals were sacrificed 3 hrs after dosing, and brains were excised, dissected into cerebellum and left and right cerebra and flash-frozen in liquid nitrogen.
The cerebrum was homogenized (5 volumes per weight) in 20 mM Tris-HCL, pH 8.5, 0.2% Triton-X100 supplemented with protease inhibitors (cOmplete, Roche Applied Science) at 4° C. using a glass Dounce homogenizer. The homogenate was centrifuged at 120,000×g for 60 min at 4° C., and the supernatant was collected and analyzed for […] using immunoassay with chemiluminescent detection (Meso-Scale Discovery, Rockville, Md. (MSD)).
Streptavidin 96-well plates (MSD) were pre-blocked with 5% Blocker A solution (MSD) for 1 hr at rt on an orbital shaker and washed 4 times with phosphate buffered saline (PBS). The wells were pre-coated with 20 ng/well of biotinylated antibody SIG-39155 (Clone M3.2, specific for amino acids 10-15 of the rodent Aβ) for 1 hr at rt and washed 4 times with PBS. For Aβ1-x analysis, 25 μl of either the cleared brain lysates or Aβ1-40 standards (8-500 pg/ml, with 2× increment) were incubated for 1 hr at rt with constant shaking. The wells were washed 4 times with PBS, and 25 μl of the detection antibody (Sulfo-TAG labeled anti-Aβ40 antibody supplied by MSD) was added and incubated for 1 hr at rt. After 4 washes with PBS, 150 μl of the chemiluminescence detection reagent (Read Buffer T, MSD) was added, and the plate was read on an MSD Sector Imager 6000 instrument. The calibration curve was fit into a non-linear four-parameter regression model, and the Aβ1-x concentrations were calculated for each well containing the cleared brain lysates. The percent of Aβ lowering was calculated based on the difference with the average Aβ concentration obtained for the brains from the animals treated with vehicle alone.

[2] = molecular target: truncated human beta-secretase, BACE1 (amino acids 1-454) (Homo sapiens (Human), UniProt P56817); assay: BACE1 Assay (Assay 1), fluorescence quench assay; format: biochemical; details: pH 4.4
Experimental: The substrate was dissolved at 1 mg/ml in DMSO.
The assay was performed in the presence of OptiMEM™ (supernatant collected over 24 h and cleared from cellular debris by centrifugation) containing the ectodomain of BACE1, 25 μl water containing the desired 2-fold concentration of test compound and 2% DMSO, 1 μM substrate peptide, 20 mM NaOAc, pH 4.4, and 0.04% Triton-X100 in a total assay volume of 50 μl in a 384 well plate. In general, 25 μl of compound dilution were added to the plate followed by the addition of 10 μl of BACE1 containing OptiMEM™ diluted 1:10 in water with 0.2% Triton X-100. The reaction was started with the addition of 15 μl substrate in NaOAc buffer. The reaction was incubated at rt (dark) in an Envision® multilabel reader (Perkin Elmer) and the cleavage of the substrate was recorded as kinetic for […] at ex: 485 nm, em: 538 nm. Blank wells containing no enzyme were included on each plate.
The intensity of fluorescence was regressed against time in order to derive velocities of reaction in all 384 wells. These velocities were used for calculating percent control using an uninhibited control containing 1% DMSO as 100% and a blank control performed in the absence of enzyme as 0%. IC50 values were calculated by fitting percent control vs. test compound concentration using Assay Explorer®.

hERG channel = hERG channel (Homo sapiens (Human), UniProt Q12809); assay: hERG-Channel Assay (Assay 2), whole-cell patch clamp in HEK293 cells stably transfected with hERG cDNA; format: cell-based; details: human, HEK293 cells stably transfected with hERG cDNA, pH 7.4, 35° C.
From the text: hERG-Channel Assay (Assay 2)
Cells: HEK (human embryonic kidney) 293 cells were stably transfected with hERG cDNA.
Cells were superfused with a bath solution containing (mM): NaCl (137), KCl (4.0), MgCl2 (1.0), CaCl2 (1.8), Glucose (10), HEPES (10), pH 7.4 with NaOH. Patch pipettes were made from borosilicate glass tubing using a horizontal puller and filled with pipette solution containing (mM): K-aspartate (130), MgCl2 (5.0), EGTA (5.0), K2ATP (4.0), HEPES (10.0), pH 7.2 with KOH. Resistance of the microelectrodes was in the range between 2 and 5 MΩ.
Stimulation and Recording:
Membrane currents were recorded using an EPC-10 patch clamp amplifier and PatchMaster software. hERG-mediated membrane currents were recorded at 35° C., using the whole-cell configuration of the patch-clamp technique. Transfected HEK293 cells were clamped at a holding potential of −60 mV and hERG-mediated inactivating tail currents were elicited using a pulse pattern with fixed amplitudes (activation/inactivation: 40 mV for 2000 ms; recovery: −120 mV for 2 ms; ramp to 40 mV in 2 ms; inactivating tail current: 40 mV for 50 ms) repeated at 15 s intervals. During each inter-pulse interval, 4 pulses scaled down by a factor of 0.2 were recorded for a P/n leak subtraction procedure. Rs compensation was employed up to a level that safely allowed recording devoid of ringing.
Compound Preparation and Application:
The different concentrations of the test compounds were applied sequentially on each of the different cells investigated. A steady state level of baseline current was measured for at least 6 sweeps prior to the application of the first test compound concentration.
The test compound was dissolved in DMSO to yield a master stock solution which was diluted further in DMSO to stock solutions needed for the lower concentrations. Final dilutions in extracellular buffer were prepared freshly from these stocks by a 1:1000 dilution step each before starting the experiments.
Peak current amplitudes were measured 3 ms after the ramp to +40 mV. For baseline and each concentration, the peak currents of the three last sweeps before application of the next concentration were averaged. Residual currents (I/I0) were calculated for each cell as the fraction of actual average peak current and average baseline peak current.

Chain of hERG channel (Q12809 whole entry): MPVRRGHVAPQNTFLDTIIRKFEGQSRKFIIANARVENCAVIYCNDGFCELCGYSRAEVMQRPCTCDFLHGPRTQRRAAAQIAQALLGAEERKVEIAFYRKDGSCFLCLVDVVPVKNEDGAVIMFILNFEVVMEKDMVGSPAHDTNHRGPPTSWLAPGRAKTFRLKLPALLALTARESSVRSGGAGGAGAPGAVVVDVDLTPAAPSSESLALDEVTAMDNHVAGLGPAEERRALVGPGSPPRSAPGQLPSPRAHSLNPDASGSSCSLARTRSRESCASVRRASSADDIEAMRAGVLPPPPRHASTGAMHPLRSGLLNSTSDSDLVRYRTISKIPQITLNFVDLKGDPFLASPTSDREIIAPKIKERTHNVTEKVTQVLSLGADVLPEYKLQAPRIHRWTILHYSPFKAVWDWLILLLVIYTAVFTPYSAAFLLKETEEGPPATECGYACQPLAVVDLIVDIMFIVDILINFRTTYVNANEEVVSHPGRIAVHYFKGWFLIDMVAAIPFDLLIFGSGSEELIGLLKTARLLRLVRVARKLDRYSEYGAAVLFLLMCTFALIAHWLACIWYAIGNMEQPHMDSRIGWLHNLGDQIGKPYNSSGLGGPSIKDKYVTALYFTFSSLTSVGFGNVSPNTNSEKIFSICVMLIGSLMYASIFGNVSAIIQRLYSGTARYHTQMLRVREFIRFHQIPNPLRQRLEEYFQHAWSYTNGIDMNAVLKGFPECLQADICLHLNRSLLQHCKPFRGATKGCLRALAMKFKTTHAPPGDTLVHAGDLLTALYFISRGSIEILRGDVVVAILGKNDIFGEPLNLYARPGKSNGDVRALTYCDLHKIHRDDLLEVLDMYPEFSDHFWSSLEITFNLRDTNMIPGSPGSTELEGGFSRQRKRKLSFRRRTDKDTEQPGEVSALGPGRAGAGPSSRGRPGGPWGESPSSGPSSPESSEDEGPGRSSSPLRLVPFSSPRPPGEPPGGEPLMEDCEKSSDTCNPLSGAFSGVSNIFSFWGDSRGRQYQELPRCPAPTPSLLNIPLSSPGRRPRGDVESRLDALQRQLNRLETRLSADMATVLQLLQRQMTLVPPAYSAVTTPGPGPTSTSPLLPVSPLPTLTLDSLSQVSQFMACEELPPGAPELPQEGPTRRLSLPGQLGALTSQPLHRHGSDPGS
Chain of truncated human beta-secretase, BACE1 (amino acids 1-454) (P56817 22-454): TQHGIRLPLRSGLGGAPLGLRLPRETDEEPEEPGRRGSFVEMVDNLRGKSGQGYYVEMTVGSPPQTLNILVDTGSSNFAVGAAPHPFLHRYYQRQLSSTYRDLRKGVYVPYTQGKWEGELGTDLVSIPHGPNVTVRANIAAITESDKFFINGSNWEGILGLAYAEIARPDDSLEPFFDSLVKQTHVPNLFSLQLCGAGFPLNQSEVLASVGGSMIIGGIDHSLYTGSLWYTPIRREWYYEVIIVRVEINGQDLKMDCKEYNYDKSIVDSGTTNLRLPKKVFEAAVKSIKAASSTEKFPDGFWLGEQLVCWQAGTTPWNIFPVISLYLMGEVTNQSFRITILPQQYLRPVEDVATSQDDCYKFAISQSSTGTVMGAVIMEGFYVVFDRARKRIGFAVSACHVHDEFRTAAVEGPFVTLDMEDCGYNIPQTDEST

IC50 [2] | SMILES | % Aβ Reduction ([1]; single oral dose 12.5 mg/kg) | inhibition at 10 µM (hERG channel) | % Aβ Reduction ([1]; single oral dose 25 mg/kg)
10.3 nM | C[C@@H]1C[C@@]2(Cc3ccc(C#N)cc3[C@]23N=C(N)N(CC(C)(C)F)C3=O)C[C@H](C)[C@H]1O [Example 2] | 40% | 4.5% | 
2.7 nM | C[C@@H]1C[C@@]2(Cc3ccc(C#N)cc3[C@]23N=C(N)N(CC2(F)CCOCC2)C3=O)C[C@H](C)[C@H]1O [Example 4] | 21% | 13% | 
14.6 nM | C[C@@H]1C[C@@]2(Cc3ccc(C#N)cc3[C@]23N=C(N)N(CCC(F)(F)F)C3=O)C[C@H](C)[C@H]1O [Example 1] |  | 13% | 25%
3.4 nM | CC[C@@H]1C[C@@]2(Cc3ccc(C#N)cc3[C@]23N=C(N)N(CC(C)(C)F)C3=O)C[C@H](C)[C@H]1O [Example 7] |  | 15% | 58%
10.7 nM | CC[C@@H]1C[C@]2(CC[C@H]1O)Cc1ccc(C#N)cc1[C@]21N=C(N)N(CC(C)(C)F)C1=O [Example 9] |  | 2.5% | 42%
